The values that follow are results of earlier work, collected in patent publication US11596693B2, “Antibody-drug conjugates and uses thereof” (priority 2019, dated 2023).

Square brackets hold non-standard residues; d marks the D form. Peptide text beside a SMILES is read from it. * marks the point of attachment. Dolaproine = CO[C@@H]([C@@H]1CCCN1)[C@@H](C)C(=O)O; Dil = CC[C@H](C)[C@H](NC)[C@@H](CC(=O)O)OC; X1 = C[C@@H](N*)[C@@H](O)c1ccccc1; NMeV = CN[C@H](C(=O)O)C(C)C

Data set [1] has as its system many cells. The following applies: for many cells.
Data set [2] deals with human-derived cancer cell lines. The note with it: read-out: median inhibitory concentration.

As for `COc1cc2cc(c1Cl)N(C)C(=O)CC(OC(=O)[C@H](C)N(C)C(=O)CCS)C1(C)OC1C(C)C1CC(O)(NC(=O)O1)C(OC)/C=C/C=C(\C)C2` (stereo partly shown) [DM1], the IC50 in data set [1] was around 0.01 nM. As for `COc1cc2cc(c1Cl)N(C)C(=O)CC(OC(=O)[C@H](C)N(C)C(=O)CCC(C)(C)S)C1(C)OC1C(C)C1CC(O)(NC(=O)O1)C(OC)/C=C/C=C(\C)C2` (stereo partly shown) [DM4], in data set [1], the IC50 is around 0.001 nM.

As for `CC[C@H](C)[C@@H]([C@@H](CC(=O)N1CCC[C@H]1[C@H](OC)[C@@H](C)C(=O)N[C@H](C)[C@@H](O)c1ccccc1)OC)N(C)C(=O)[C@@H](NC(=O)[C@@H](NC)C(C)C)C(C)C` [MMAE, Monomethyl auristatin E] (H-[NMeV]V[Dil][Dolaproine]-X1), the IC50 in data set [1] is 0.01 to 1 nM.

On to `COc1cccc2c1C(=O)c1c(O)c3c(c(O)c1C2=O)C[C@@](O)(C(=O)CO)C[C@@H]3O[C@H]1C[C@H](N)[C@H](O)[C@H](C)O1` [doxorubicins, Doxorubicin], for which the IC50 in data set [2] is 100 to 200 nM.
